The source made the active and inactive calls. No cut-off for these calls is given here.
Key:
[1] = biological target: T1, AMP-activated protein kinase (AMPK) alpha-1/beta-1/gamma-1 (Homo sapiens) (UniProt P54619+Q9Y478+Q13131); experiment: Activation of C-terminal His tagged human recombinant full length AMPK alpha1/beta1/gamma1 expressed in baculovirus infected Sf9 cells using SAMS peptide as substrate at 100 uM incubated for 60 mins by ADP-Glo luminescence assay relative to control
[2] = organism: Rattus norvegicus; experiment: Antagonist activity at AT1 receptor in rat portal vein assessed as reduction in […] contraction at 10 uM incubated for 1 min relative to control; parameters: scale not given: the % may be the effect or the level left
[3] = test system: Platelet; experiment: Antiplatelet activity in rabbit platelet rich plasma assessed as inhibition of ADP-induced platelet aggregation at 100 uM relative to control; type: functional, Oryctolagus cuniculus; parameters: scale not given: the % may be the effect or the level left
[4] = Inhibition of AGE formation assessed as reduction in bovin serum albumin glycation at 1 mM incubated for 24 hrs in presence of glucose by spectrophotometric analysis relative to control; type: functional
[5] = Ratio of antiplatelet activity for test compound to antiplatelet activity for acetylsalicylic acid in rabbit platelet rich plasma assessed as inhibition of ADP-induced platelet aggregation at 100 uM; type: functional, Oryctolagus cuniculus
[6] = Inhibition of AGE formation assessed as reduction in reduction in bovin serum albumin glycation incubated for 24 hrs in presence of glucose by spectrophotometric analysis; type: functional
[7] = Inhibition of AGE formation assessed as reduction in reduction in bovin serum albumin glycation incubated for 24 hrs in presence of glucose, Cu2+ by spectrophotometric analysis; type: functional
[8] = Binding affinity to glyoxal assessed as reduction in glyoxal by GirardT reagent based spectrophotometric method
[9] = Inhibition of AGE formation assessed as reduction in reduction in bovin serum albumin glycation at 1 mM incubated for 24 hrs in presence of glucose, Cu2+ by spectrophotometric analysis relative to control; type: functional
[10] = biological target: T1, AMP-activated protein kinase (AMPK) alpha-1/beta-1/gamma-1 (Homo sapiens); experiment: (§1) Activation of C-terminal His tagged human recombinant full length AMPK alpha1/beta1/gamma1 expressed in baculovirus infected Sf9 cells using SAMS peptide as substrate incubated for 60 mins by ADP-Glo luminescence assay
[11] = Ratio of inhibition of formation in AGE for test compound to inhibition of formation in AGE for aminoguanidine at 1 mM incubated for 24 hrs in presence of glucose by spectrophotometric analysis
[12] = Solubility of the compound in PBS at pH 7.4; type: physicochemical
[13] = biological target: T1, AMP-activated protein kinase (AMPK) alpha-1/beta-1/gamma-1 (Homo sapiens); experiment: Activation of C-terminal His tagged human recombinant full length AMPK alpha1/beta1/gamma1 expressed in baculovirus infected Sf9 cells assessed as enzyme activation using SAMS peptide as substrate at 100 uM incubated for 60 mins by ADP-Glo luminescence assay relative to control
[14] = biological target: T2, AMP-activated protein kinase (AMPK) alpha-1/beta-1/gamma-1 (Homo sapiens, UniProt P54619+Q13131+Q9Y478); experiment: Activation of human AMPK alpha1/beta1/gamma1 expressed in baculovirus/Sf9 cells using SAMS peptide as substrate incubated for 15 mins by in presence of 33P-ATP by liquid scintillation counting method
T2 sequence (P54619 whole entry): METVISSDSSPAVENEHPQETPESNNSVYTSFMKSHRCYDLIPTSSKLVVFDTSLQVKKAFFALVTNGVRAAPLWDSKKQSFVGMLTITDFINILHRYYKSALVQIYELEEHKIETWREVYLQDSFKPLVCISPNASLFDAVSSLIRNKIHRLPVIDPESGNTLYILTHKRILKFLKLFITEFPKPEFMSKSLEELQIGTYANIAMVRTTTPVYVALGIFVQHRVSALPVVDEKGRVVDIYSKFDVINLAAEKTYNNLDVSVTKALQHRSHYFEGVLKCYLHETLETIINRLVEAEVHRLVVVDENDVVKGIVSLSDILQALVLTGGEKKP
T2 sequence (Q9Y478 whole entry): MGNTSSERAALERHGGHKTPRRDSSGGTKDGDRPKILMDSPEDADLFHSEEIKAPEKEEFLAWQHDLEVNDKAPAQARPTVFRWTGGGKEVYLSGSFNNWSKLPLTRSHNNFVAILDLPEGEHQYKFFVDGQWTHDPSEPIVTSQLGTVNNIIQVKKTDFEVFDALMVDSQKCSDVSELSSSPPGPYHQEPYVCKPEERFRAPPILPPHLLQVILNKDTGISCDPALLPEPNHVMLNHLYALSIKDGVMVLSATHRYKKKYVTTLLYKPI
T2 sequence (Q13131 whole entry): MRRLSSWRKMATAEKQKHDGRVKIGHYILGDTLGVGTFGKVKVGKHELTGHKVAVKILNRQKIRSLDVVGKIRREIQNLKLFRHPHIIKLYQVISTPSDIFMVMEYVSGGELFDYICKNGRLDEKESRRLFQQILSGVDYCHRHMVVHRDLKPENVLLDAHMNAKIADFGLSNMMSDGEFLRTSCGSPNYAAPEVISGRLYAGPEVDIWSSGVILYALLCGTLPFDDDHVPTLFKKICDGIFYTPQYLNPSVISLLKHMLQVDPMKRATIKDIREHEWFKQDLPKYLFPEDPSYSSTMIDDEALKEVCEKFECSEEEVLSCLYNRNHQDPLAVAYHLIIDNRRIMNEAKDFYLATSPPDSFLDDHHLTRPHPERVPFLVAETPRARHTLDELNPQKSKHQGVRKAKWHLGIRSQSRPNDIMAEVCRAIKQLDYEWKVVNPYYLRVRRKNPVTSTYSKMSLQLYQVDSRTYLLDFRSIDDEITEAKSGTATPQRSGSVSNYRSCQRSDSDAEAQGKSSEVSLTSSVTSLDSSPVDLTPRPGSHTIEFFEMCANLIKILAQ

[15] = test system: Peritoneal macrophage; experiment: Cytotoxicity against mouse peritoneal macrophages up to 50 uM incubated for 24 hrs by neutral red assay; type: cell-based
[16] = biological target: T2, AMP-activated protein kinase (AMPK) alpha-1/beta-1/gamma-1; experiment: as §1
[17] = test system: Peritoneal macrophage; experiment: Anti-inflammatory activity in mouse peritoneal macrophages assessed as inhibition of LPS-induced NO production incubated for 22 hrs by Griess reagent based colorimetric assay; type: functional, cell-based
[18] = test system: Peritoneal macrophage; experiment: Cytotoxicity against mouse peritoneal macrophages up to 50 uM incubated for 24 hrs by MTT assay; type: cell-based
[19] = biological target: AMP-activated protein kinase, AMPK; experiment: Activation of recombinant human AMPK expressed in Sf9 cells using SAMS peptide as substrate preincubated for 30 mins followed by substrate addition and measured after 60 mins by fluorescence based assay
[20] = biological target: 5'-AMP-activated protein kinase; experiment: Activation of recombinant mouse AMPK expressed in Sf9 cells using SAMS peptide as substrate preincubated for 30 mins followed by substrate addition and measured after 60 mins by fluorescence based assay
[21] = Activation of recombinant rhesus monkey AMPK expressed in Sf9 cells using SAMS peptide as substrate preincubated for 30 mins followed by substrate addition and measured after 60 mins by fluorescence based assay; parameters: species or system Macaca mulatta

T1 sequence (P54619 whole entry): as the sequence (P54619 whole entry) above
T1 sequence (Q13131 whole entry partner): as the sequence (Q13131 whole entry) above
T1 sequence (Q9Y478 2-270 partner limits assumed): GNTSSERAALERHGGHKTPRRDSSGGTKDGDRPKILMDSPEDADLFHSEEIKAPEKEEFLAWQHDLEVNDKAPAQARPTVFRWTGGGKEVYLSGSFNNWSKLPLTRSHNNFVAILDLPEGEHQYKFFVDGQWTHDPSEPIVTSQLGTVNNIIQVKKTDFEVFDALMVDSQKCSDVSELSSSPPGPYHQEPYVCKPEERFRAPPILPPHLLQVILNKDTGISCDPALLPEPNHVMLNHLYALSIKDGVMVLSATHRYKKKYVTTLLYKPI

Structure (SMILES) | Activity [1] [%] | Activity [2] [%] | Activity [3] [%] | inhibition [4] [%] | Ratio [5] | other results
Br.COC(=O)c1ccccc1-c1ccc(CN2C3=NCCCCN3c3ccccc32)cc1 | -11.3 | 33.3 | 97.4 | 17.9 | 2.1 - 3.6 | 
N=C(N)NN [PIMAGEDINE] |  |  |  | 57.8 |  | IC50 [6]: 765 µM; IC50 [7]: Not Active; Activity [8]: Active
Br.N#Cc1ccc(C(=O)CN2C3=NCCN3c3ccccc32)cc1 | 25.5 | 0 | 6.6 | 72.1 |  | inhibition [9]: 25.4%; pEC50 [10]: inactive; Ratio [11]: 1.8; IC50 [6]: 422 µM; IC50 ([7]; read-out: IC50): > 1000 µM; solubility [12]: > 500 µM; fold change (FC) [13]: inactive; Activity [8]: Active
N#Cc1c(O)c2c(-c3ccc(-c4ccccc4O)cc3)csc2[nH]c1=O |  |  |  |  |  | EC50 [14]: 0.8 µM
Br.c1ccc(-c2ccc(CN3C4=NCCN4c4ccccc43)cc2)cc1 | 54.2 | 5.2 | 89.2 | 22.5 | 2.1 - 3.6 | 
Br.N#Cc1ccccc1-c1ccc(CN2C3=NCCCN3c3ccccc32)cc1 | 197 | 40.4 |  | -9.2 |  | Activity [15]: Non-Toxic; EC50 ([16]; read-out: EC50): 0.34 µM; IC50 [17]: 4.96 µM; Activity [18]: Non-Toxic; solubility [12]: > 500 µM; fold change (FC) [13]: 2.81
Br.c1ccc(-c2ccc(CN3C4=NCCCCN4c4ccccc43)cc2)cc1 | 12.3 | 13.5 | 98.7 |  | 2.1 - 3.6 | 
O=C(O)c1ccccc1-c1ccc(CN2C3=NCCCCN3c3ccccc32)cc1 | -36.4 | 20 |  | 30.8 |  | 
CC(=O)Oc1ccccc1C(=O)O [ASPIRIN] |  |  | 27.8 |  |  | 
Br.N#Cc1ccccc1-c1ccc(CN2C3=NCCCCN3c3ccccc32)cc1 | 293 | 0 |  |  |  | Activity [15]: Non-Toxic; EC50 ([16]; read-out: EC50): 0.44 µM; Activity [18]: Non-Toxic; solubility [12]: > 500 µM; fold change (FC) [13]: 4
Cc1ccc(OCCSc2ncccn2)c(Br)c1 | 157 |  |  |  |  | EC50 ([16]; read-out: EC50): 0.55 µM
O=C(O)c1ccccc1-c1ccc(CN2C3=NCCN3c3ccccc32)cc1 | 6.9 | -1.7 |  | 7.7 |  | 
Br.N#Cc1ccccc1-c1ccc(CN2C3=NCCN3c3ccccc32)cc1 | 163 | 21.9 | 57.1 | 8.6 | 2.1 - 3.6 | EC50 ([16]; read-out: EC50): 109 µM; EC50 ([16]; read-out: pEC50 (converted)): 25.1 µM; IC50 [17]: 5.32 µM; solubility [12]: > 500 µM; fold change (FC) [13]: 1.56
CCCCc1nc(Cl)c(CO)n1Cc1ccc(-c2ccccc2-c2nnn[nH]2)cc1 [LOSARTAN] |  | 99 |  | 51.4 |  | inhibition [9]: 51.4%; IC50 [6]: > 1000 µM; IC50 ([7]; read-out: IC50): 782 µM
O[C@@H]1CO[C@H]2[C@@H]1OC[C@H]2Oc1nc2nc(-c3ccc(-c4ccccc4)cc3)c(Cl)cc2[nH]1 |  |  |  |  |  | EC50 [19]: 0.001 to 0.06 µM; EC50 [20]: 0.001 to 0.06 µM; EC50 [21]: 0.001 to 0.06 µM
COC(=O)c1ccccc1-c1ccc(CN2C3=NCCN3c3ccccc32)cc1 | 3.5 | -5.7 |  | 0.4 |  | 
C[C@@H]1C[C@H]2[C@@H]3CCC4=CC(=O)C=C[C@]4(C)[C@@]3(F)[C@@H](O)C[C@]2(C)[C@@]1(O)C(=O)CO [DEXAMETHASONE] |  |  |  |  |  | IC50 [17]: 0.15 µM
Br.O=C(O)c1ccc(CN2C3=NCCN3c3ccccc32)cc1 | 3.7 | 11.1 | 57 | 19.2 | 2.1 - 3.6 | 
O=C(O)c1ccccc1-c1ccc(CN2C3=NCCCN3c3ccccc32)cc1 | -16.2 | 7.5 |  | 38.5 |  | 
Br.c1ccc(-c2ccc(CN3C4=NCCCN4c4ccccc43)cc2)cc1 | 16 | 14.6 | 95.2 | 9.9 | 2.1 - 3.6 | 
Br.CCOC(=O)c1ccc(CN2C3=NCCN3c3ccccc32)cc1 | 0.6 | 5.6 | 76.3 | 17.5 | 2.1 - 3.6 | 
COC(=O)c1ccccc1-c1ccc(CN2C3=NCCCN3c3ccccc32)cc1 | 21.7 | 5.9 |  | 14.9 |  | 
